The values below come from patent US9977014B2, “Nanoparticle sensor for nucleic acid-protein interaction” (Agency for Science, Technology and Research, priority 2013, dated 2018).

For one series, the system named is FoxA1 and AP2γ. The series can be described thus: Ligand selectivity (positive = inhibitor, negative) listed in Table 3. In kind it is binding. Further details: key: Positive: A positive ligand refers to a ligand that can inhibit protein binding to DNA; Negative: a negative ligand is a ligand that does not interrupt the binding. An excerpt:
9 small ligands (as described in Table 3) were used to disrupt the DNA-protein interaction. […] It must be clearly understood that a particular ligand can bind strongly (with high affinity) to a certain protein but not inhibit the subsequent protein binding to DNA and vice versa. The main objective of this assay is to screen ligands that can interrupt protein binding to DNA regardless of their affinity to the protein. All of the ligands were kept as solutions in DMSO. Before using, they were thawed in a room temperature water bath.

The target of series [1] is T1, FoxA1 (Homo sapiens, UniProt P55317).
T1 construct: Full-length FoxA1 cDNA was cloned into a pHISMBP (Addgene) expression vector; made in house; host or cells: E. coli BL21 (DE3)
T1 sequence (P55317 1-472): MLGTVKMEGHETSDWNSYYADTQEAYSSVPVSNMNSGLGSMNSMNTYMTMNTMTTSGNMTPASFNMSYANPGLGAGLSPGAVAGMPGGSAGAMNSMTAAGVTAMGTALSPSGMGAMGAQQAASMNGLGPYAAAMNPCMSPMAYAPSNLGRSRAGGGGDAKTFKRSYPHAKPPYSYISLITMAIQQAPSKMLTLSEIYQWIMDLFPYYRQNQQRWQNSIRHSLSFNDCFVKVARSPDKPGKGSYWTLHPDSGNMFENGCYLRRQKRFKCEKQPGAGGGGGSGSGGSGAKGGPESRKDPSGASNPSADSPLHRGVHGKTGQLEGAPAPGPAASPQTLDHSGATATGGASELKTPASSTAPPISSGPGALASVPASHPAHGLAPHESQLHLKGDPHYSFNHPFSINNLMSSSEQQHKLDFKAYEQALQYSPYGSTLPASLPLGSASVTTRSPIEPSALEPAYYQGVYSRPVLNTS
Kind of series: Ligand inhibition of DNA-protein interaction, CP/Probe2-AuNP hybrid sensor. The format is binding. The settings on record: protein:ligand 1:8. Here is the method:
For screening of ligand inhibition of the DNA-protein interaction (FIG. 4(B)), the ligand and protein were incubated at a molar ratio of 8:1 for 10-20 min at RT prior to the addition of dsDNA-AuNP in step (1) above. Steps (1), (2) and (3) were then repeated.
The proteins and each ligand were mixed at a ratio of 1:8 for 10 min. The protein-ligand pre-incubation solution was then mixed with dsDNA-AuNP and further incubated for 20 mins. The CP was then added as the last step. Positive and negative controls were also prepared, where the positive control was dsDNA-AuNP incubated with protein without ligand, and the negative control was dsDNA-AuNPs incubated without any protein added.

For series [2], the target named is T1, FoxA1. The series can be described thus: Electrophoretic Mobility Shift Assay (EMSA), DNA probe binding. Conditions: read-out: Binding constant (Kd). From the text:
(§1) Electrophoretic Mobility Shift Assay (EMSA): Invitrogen Corporation, Panomics Inc., Pierce Biotechnology, Viagene Inc.
Background: Mobility shift assays separate free from complexed probe on a gel.

In a further series the target is T2, His-MBP-FoxA1 (Homo sapiens, UniProt P55317).
T2 construct: Full-length FoxA1 cDNA was cloned into a pHISMBP (Addgene) expression vector; made in house; host or cells: E. coli BL21 (DE3)
T2 sequence (P55317 1-472): T1 sequence (P55317 1-472)
Kind of series: Fluorescence anisotropy (FA) with FAM-labelled DNA probes. The settings on record: read-out: Binding constant (Kd). Here is the method:
Fluorescence anisotropy (FA): To determine the binding activity of His-MBP-FoxA1 to various FoxA1 probes containing its cognate DNA element, fluorescence anisotropy (FA) assay was utilized. The wildtype and two mutant probes for FoxA1, labelled with carboxyfluorescein (FAM), are as described earlier in Table 1. The assays were carried out in 384-well microplates (Corning) in which varying concentrations of protein were incubated with 2 nM of the labelled probe in PBS buffer for 20 min at room temperature (RT). To examine the effects of small molecule inhibitors on FoxA1 DNA binding, 125 nM of protein was pre-incubated with 5% DMSO, or 1 mM unlabelled probe, or 1.9 mM inhibitor for 1 h, at room temperature (RT), before the addition of 2 nM of the FAM labelled probe for another hour incubation.
Fluorescence anisotropy was measured using Synergy 2 Multi-Mode Microplate Reader with a 485/20-excitation and a 528/20-emission filter. The equilibrium dissociation constants for each wild-type probe were subsequently calculated by fitting the FoxA1 concentration vs. fluorescence polarization plot using Langmuir isotherm in Origin Pro 8 software. Standard error values (precision of the fitted values) were also obtained from the software after fitting.
In general terms: Polarisation of emitted light reports the rotation of a fluorescent probe.

In series [3] the target is T1, FoxA1. The series can be described thus: CP/dsDNA-AuNP hybrid sensor protein titration. The settings on record: read-out: Binding constant (Kd). Here is the method: Qualitatively, the affinity of FOxA1 to different DNA probes can be identified by the degree of change in fluorescence intensity. For measuring the binding affinity constant Kd, protein titration was conducted using protein:DNA molar ratios of 0:1 to 5:1. That is, in a 50 nM solution of dsDNA-AuNPs, protein was added to achieve a concentration of 0-250 nM. The respective fluorescence intensity of the subsequent CP emission was recorded and compared with a control reaction containing no protein (FIG. 12).

For series [4], the target named is T3, AP-2γ (Homo sapiens, UniProt Q92754). Kind of series: Fluorescence anisotropy (FA) with labelled DNA probes. Set-up: made in house. Conditions: read-out: Binding constant (Kd).
T3 sequence (Q92754 whole entry, species assumed): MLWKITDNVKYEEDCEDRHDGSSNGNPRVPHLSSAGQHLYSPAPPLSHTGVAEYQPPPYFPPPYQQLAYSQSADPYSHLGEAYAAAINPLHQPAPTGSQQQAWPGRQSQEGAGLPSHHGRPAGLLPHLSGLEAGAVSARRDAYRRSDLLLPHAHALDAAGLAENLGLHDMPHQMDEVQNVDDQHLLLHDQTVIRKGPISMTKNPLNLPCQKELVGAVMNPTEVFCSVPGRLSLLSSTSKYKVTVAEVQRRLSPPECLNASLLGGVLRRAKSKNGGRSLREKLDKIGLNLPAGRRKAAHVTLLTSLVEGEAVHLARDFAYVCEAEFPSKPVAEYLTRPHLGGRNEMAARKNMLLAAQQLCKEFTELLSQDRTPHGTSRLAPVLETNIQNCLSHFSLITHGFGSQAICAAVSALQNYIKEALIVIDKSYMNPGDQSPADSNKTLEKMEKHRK
The target in series [5] is T3, AP-2γ. The series can be described thus: Electrophoretic Mobility Shift Assay (EMSA), DNA probe binding. Further details: made in house. Conditions: read-out: Binding constant (Kd).
Excerpt: as §1

Series [6] deals with T3, AP-2γ. Kind of series: CP/dsDNA-AuNP hybrid sensor protein titration.
Experimental: The protein-DNA binding assay was conducted in three main steps (FIG. 4(A)): • 1) 50 nM dsDNA-AuNPs (referring to dsDNA concentration on the surface of AuNPs) was incubated with protein for 20-40 min at room temperature (RT).
Based on the relationship between protein concentration and fluorescence intensity, the binding constant, Kd, can be calculated using the equation: (F0−F)/(F−Fsat)=([protein]/Kd)^n. […] The slope, n, is the binding stoichiometry of protein to DNA.
The assay was also used to study a second transcription factor, AP-2γ (pI˜7.8), to test the applicability of the method. wtR3 and mtR3 were used as the probe DNA sequences (Table 2). […] From the relative decrease and increase in fluorescent intensity of CP with increasing concentration of AP-2γ, the binding affinity Kd and n were determined.
[7] abbreviates: CP/dsDNA-AuNPs hybrid sensor (ACP-430).
The mark [8] stands for this setting: CP/dsDNA-AuNPs hybrid sensor (ACP-560).
Setting [9] is: CP/dsDNA-AuNPs hybrid sensor (CCP-410).

With `Nc1ccc2nc3ccc(=O)cc-3n(-c3ccccc3)c2c1` [Ligand 4], in the series on FoxA1 and AP2γ, the “Selectivity for FoxA1 and AP2γ” value is reported as “Negative”. Moreover, the “Ligand effect on FoxA1-DNA binding” value at FoxA1 [1] (ACP-430/Probe2-AuNP and CCP-410/Probe2-AuNP) was “negligible effect”. Further, the “Ligand influence on FoxA1-Probe2 binding” value at FoxA1 [1] (ACP-430/Probe2-AuNP) is recorded as “retain its binding capability”.
For the compound “Probe1: FoxA1 DNA probe 5′-CACTTTGTTTGCAAAGC-3′ (SEQ ID NO: 1) with complementary strand; modified at the centre (antisense GCTTTGCAAACAAAGTG; DNA, backbone and methylation of C not given here; sense strand 5'-thiol-labelled, conjugated to gold nanoparticles)”, the Kd is 0.459 µM in the series with FoxA1 [2]; 0.231 µM with His-MBP-FoxA1; 0.0313 µM with FoxA1 [3] (setting [7]); 0.0329 µM with FoxA1 [3] (setting [8]); 0.0341 µM with FoxA1 [3] (setting [9]).
For “Probe2: Ideal FoxA1 DNA probe 5′-GTACTGTAAATAAAACT-3′ (SEQ ID NO: 3) with complementary strand (antisense AGTTTTATTTACAGTAC; DNA, backbone and methylation of C not given here; sense strand 5'-thiol-labelled, conjugated to gold nanoparticles)” the same measures were 0.0478 µM, 0.016 µM, 0.00447 µM, 0.00576 µM and 0.00502 µM.
For “wtR3: GC rich wild-type DNA for AP-2γ, 5′-AAAGTGCCCAGAGCCCATG-3′ (SEQ ID NO: 7) with complementary strand (antisense CATGGGCTCTGGGCACTTT; DNA, backbone and methylation of C not given here; sense strand 5'-thiol-labelled, conjugated to gold nanoparticles)”, the Kd in the series with AP-2γ [4] was found to be 0.0506 µM; with AP-2γ [5] it was 0.139 µM; with AP-2γ [6] (read-out: Binding constant (Kd), CP/dsDNA-AuNPs hybrid sensor (ACP-430)), 0.0124 µM; with AP-2γ [6] (read-out: Binding constant (Kd), CP/dsDNA-AuNPs hybrid sensor (ACP-560)), 0.0146 µM; in the series with AP-2γ [6] (read-out: Binding constant (Kd), CP/dsDNA-AuNPs hybrid sensor (CCP-410)), 0.013 µM.
